Assay results reported in patent US20250313563A1, “GLYCOGEN SYNTHASE KINASE 3 INHIBITORS AND USES THEREOF” (The Broad Institute, Inc., priority 2022, published 2025).
pIC50: −log10 of the molar value. Like-named read-outs stand apart in the source and are kept apart here. One block for each compound: values may come before it.

Experiments:
[1] = molecular target: GSK3b (GST-full length GSK3b) (Homo sapiens (Human), UniProt P49841); assay: GSK3b TR-FRET kinase assay; assay type: biochemical
In short: (§1)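 Readout: anti-pSer641 Tb antibody/streptavidin-d2 signal after 60 min, expressed as 665/615 ratio and fitted versus log concentration for IC50. Enzyme: 1 nM GST-GSK3 (α or β), compound-preincubated 30 min. Conditions: pH 7.5 Tris buffer with MgCl2, DTT, BSA; ATP at 4 or 2 μM, or 1 mM; 100 min.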

[2] = molecular target: GSK3α (GST-full length GSK3α) (Homo sapiens (Human), UniProt P49840); assay: GSK3α TR-FRET kinase assay; assay type: biochemical
Sequence of GSK3α (GST-full length GSK3α) (P49840 whole entry): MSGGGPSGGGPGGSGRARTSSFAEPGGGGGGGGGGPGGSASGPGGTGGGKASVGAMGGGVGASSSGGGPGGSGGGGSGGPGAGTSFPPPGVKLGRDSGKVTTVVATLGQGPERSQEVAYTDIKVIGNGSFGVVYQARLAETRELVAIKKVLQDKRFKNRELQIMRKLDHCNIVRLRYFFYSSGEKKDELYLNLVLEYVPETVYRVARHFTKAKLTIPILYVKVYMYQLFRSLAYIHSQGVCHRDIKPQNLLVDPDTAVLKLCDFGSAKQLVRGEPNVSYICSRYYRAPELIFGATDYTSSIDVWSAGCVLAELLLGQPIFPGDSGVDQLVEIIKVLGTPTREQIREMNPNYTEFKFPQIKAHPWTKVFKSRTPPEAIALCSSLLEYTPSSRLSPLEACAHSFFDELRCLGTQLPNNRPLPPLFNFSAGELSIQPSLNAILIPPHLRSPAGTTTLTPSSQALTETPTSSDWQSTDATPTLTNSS
In short: as §1

[3] = 1 nM GSK3b, 2 μM ATP, 30 minute preincubation, geometric mean, read-out: GSK3-B TR-FRET BIOCHEMICAL (TR-FRET), GMean, IC50
[4] = 1 nM GSK3α, 4 μM ATP, 30 minute preincubation, geometric mean, read-out: GSK3-A TR-FRET BIOCHEMICAL (TR-FRET), GMean, IC50
[5] = 1 nM GSK3b, 2 μM ATP, 30 minute preincubation, Table 16, read-out: GSK3-B TR-FRET BIOCHEMICAL (TR-FRET), IC50
[6] = 1 nM GSK3α, 4 μM ATP, 30 minute preincubation, Table 16, read-out: GSK3-A TR-FRET BIOCHEMICAL (TR-FRET), IC50
[7] = 1 nM GSK3b, 2 μM ATP, 30 minute preincubation, read-out: GSK3-B TR-FRET BIOCHEMICAL (TR-FRET), IC50
[8] = GSK3-B (TR-FRET 1 mM ATP), GMean, IC50, 1 mM ATP, geometric mean
[9] = 1 nM GSK3α, 4 μM ATP, 30 minute preincubation, read-out: GSK3-A TR-FRET BIOCHEMICAL (TR-FRET), IC50
[10] = GSK3-A (TR-FRET 1 mM ATP), GMean, IC50, 1 mM ATP, geometric mean
[11] = 1 nM GSK3b, 2 μM ATP, 30 minute preincubation, Table 16, read-out: GSK3-B TR-FRET BIOCHEMICAL (TR-FRET)
[12] = 1 nM GSK3α, 4 μM ATP, 30 minute preincubation, Table 16, read-out: GSK3-A TR-FRET BIOCHEMICAL (TR-FRET)
[13] = read-out: GSK3-B (TR-FRET 1 mM ATP), GMean, IC50, 1 mM ATP, geometric mean
[14] = read-out: GSK3-A (TR-FRET 1 mM ATP), GMean, IC50, 1 mM ATP, geometric mean

Sequence of GSK3b (GST-full length GSK3b) (P49841 whole entry): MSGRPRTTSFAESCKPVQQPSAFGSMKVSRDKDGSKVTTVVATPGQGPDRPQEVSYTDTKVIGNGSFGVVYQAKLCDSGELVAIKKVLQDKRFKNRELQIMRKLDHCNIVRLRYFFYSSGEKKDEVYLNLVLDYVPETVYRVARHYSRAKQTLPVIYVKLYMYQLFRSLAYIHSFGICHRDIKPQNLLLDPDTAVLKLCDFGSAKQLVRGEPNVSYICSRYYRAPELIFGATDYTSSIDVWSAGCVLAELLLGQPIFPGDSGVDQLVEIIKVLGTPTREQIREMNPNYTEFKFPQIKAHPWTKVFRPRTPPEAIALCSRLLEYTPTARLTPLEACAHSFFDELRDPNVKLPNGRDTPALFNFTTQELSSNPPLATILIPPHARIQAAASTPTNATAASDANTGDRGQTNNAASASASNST

Compound: CCC1(c2cccc(N(C)c3cccnc3)c2)C2=C(CC(C)(C)CC2=O)Nc2n[nH]cc21 (stereo not shown) [Compound 874299]
- pIC50 [1, 3]: < 5.30
- pIC50 [2, 4]: 6.00 to 7.00

Compound: CCC1(c2cccc(N3CCOCC3)c2)C2=C(CC(C)(C)CC2=O)Nc2n[nH]c(C)c21 (stereo not shown) [Compound 874312]
- pIC50 [1, 3]: ≥ 7.00
- pIC50 [2, 4]: ≥ 7.00

Compound: CCC1(COCc2ccccc2)C2=C(CC(C)(C)CC2=O)Nc2n[nH]cc21 (stereo not shown) [Compound 874313]
- pIC50 [1, 5]: 5.30 to 6.00
- pIC50 [2, 6]: 5.30 to 6.00

Compound: CCC1(c2cccc(-c3ccncc3)c2)C2=C(CC(C)CC2=O)Nc2n[nH]cc21 (stereo not shown) [Compound 874315]
- pIC50 [1, 3]: < 5.30
- pIC50 [2, 4]: 5.30 to 6.00

Compound: CCC1(c2cccc(-c3ccncc3)c2)C2=C(CC(C)CC2=O)Nc2n[nH]cc21 (stereo not shown) [Compound 874316]
- pIC50 [1, 3]: 5.30 to 6.00
- pIC50 [2, 4]: 6.00 to 7.00

Compound: C[C@@H]1CCC[C@]12C1=C(CC(C)(C)CC1=O)Nc1n[nH]cc12 [Compound 874319]
- pIC50 [1, 5]: 5.30 to 6.00
- pIC50 [2, 6]: 5.30 to 6.00

Compound: C[C@H]1CCC[C@@]12C1=C(CC(C)(C)CC1=O)Nc1n[nH]cc12 [Compound 874320]
- pIC50 [1, 5]: 5.30 to 6.00
- pIC50 [2, 6]: 5.30 to 6.00

Compound: CC1(C)CC(=O)C2=C(C1)Nc1n[nH]c(CCC(F)(F)F)c1C21CCc2c(F)cccc21 (stereo not shown) [Compound 874323]
- pIC50 [1, 3]: 5.30 to 6.00
- pIC50 [2, 4]: 5.30 to 6.00

Compound: CC1(C)CC(=O)C2=C(C1)Nc1n[nH]cc1C21CC2(CCCC2)C1 [Compound 874477]
- pIC50 [1, 7]: ≥ 7.00
- pIC50 [1, 8]: 5.30 to 6.00
- pIC50 [2, 9]: ≥ 7.00
- pIC50 [2, 10]: 6.00 to 7.00

Compound: CC1(C)CC(=O)C2=C(C1)Nc1n[nH]cc1C21CCC1 [Compound 874509]
- pIC50 [1, 11]: 6.00 to 7.00
- pIC50 [2, 12]: 6.00 to 7.00

Compound: CCC1(c2ccccc2)C2=C(CC(C)(C)CC2=O)Nc2n[nH]c(C(F)F)c21 (stereo not shown) [Compound 874510]
- pIC50 [1, 3]: ≥ 7.00
- pIC50 [1, 13]: 6.00 to 7.00
- pIC50 [2, 4]: ≥ 7.00
- pIC50 [2, 14]: 6.00 to 7.00

Compound: CC1(C)CC(=O)C2=C(C1)Nc1n[nH]cc1C21CC(C(F)(F)F)C1 (stereo not shown) [Compound 874527]
- pIC50 [1, 11]: 6.00 to 7.00
- pIC50 [2, 12]: ≥ 7.00

Compound: CC1(C)CC(=O)C2=C(C1)Nc1n[nH]cc1C21CCN(CC(F)(F)F)CC1 [Compound 874528]
- pIC50 [1, 11]: 6.00 to 7.00
- pIC50 [2, 12]: ≥ 7.00

Compound: CC1(C)CC(=O)C2=C(C1)Nc1n[nH]cc1C21CCN(c2ccncn2)CC1 [Compound 874529]
- pIC50 [1, 11]: 5.30 to 6.00
- pIC50 [2, 12]: 6.00 to 7.00

Compound: CC1(C)CC(=O)C2=C(C1)Nc1n[nH]cc1C21CCN(S(=O)(=O)c2ccccc2)CC1 [Compound 874530]
- pIC50 [1, 11]: ≥ 7.00
- pIC50 [1, 8]: 5.30 to 6.00
- pIC50 [2, 12]: ≥ 7.00
- pIC50 [2, 10]: 6.00 to 7.00

Compound: CCC1(c2cccc(-n3ccnc3)c2)C2=C(CC(C)(C)CC2=O)Nc2n[nH]cc21 (stereo not shown) [Compound 874531]
- pIC50 [1, 3]: ≥ 7.00
- pIC50 [2, 4]: ≥ 7.00

Compound: C[C@@H]1CCC[C@]2(C1)C1=C(CC(C)(C)CC1=O)Nc1n[nH]cc12 [Compound 874532]
- pIC50 [1, 11]: ≥ 7.00
- pIC50 [2, 12]: ≥ 7.00

Compound: CCC1(c2cccc(-n3ccnc3)c2)C2=C(CC(C)(C)CC2=O)Nc2n[nH]cc21 (stereo not shown) [Compound 874533]
- pIC50 [1, 3]: < 5.30
- pIC50 [2, 4]: 6.00 to 7.00

Compound: CC1(C)CC(=O)C2=C(C1)Nc1n[nH]cc1C21CC2(CCOCC2)C1 [Compound 874534]
- pIC50 [1, 7]: ≥ 7.00
- pIC50 [1, 8]: 6.00 to 7.00
- pIC50 [2, 9]: ≥ 7.00
- pIC50 [2, 10]: 6.00 to 7.00

Compound: CC1(C)CC(=O)C2=C(C1)Nc1n[nH]cc1[C@]21CCCOCC1 [Compound 874535]
- pIC50 [1, 11]: ≥ 7.00
- pIC50 [2, 12]: ≥ 7.00

Compound: CC1(C)CC(=O)C2=C(C1)Nc1n[nH]cc1[C@@]21CCCOCC1 [Compound 874536]
- pIC50 [1, 5]: 5.30 to 6.00
- pIC50 [2, 6]: 6.00 to 7.00

Compound: C[C@@H]1CCC[C@@]2(C1)C1=C(CC(C)(C)CC1=O)Nc1n[nH]cc12 [Compound 874537]
- pIC50 [1, 11]: 6.00 to 7.00
- pIC50 [2, 12]: 6.00 to 7.00

Compound: CC[C@@]1(c2cccc(N(C)c3ccccn3)c2)C2=C(CC(C)(C)CC2=O)Nc2n[nH]cc21 [Compound 875608]
- pIC50 [1, 3]: < 5.30
- pIC50 [2, 4]: 5.30 to 6.00

Compound: Cc1[nH]nc2c1C1(CCCCC1)C1=C(CC(C)(C)CC1=O)N2 [Compound 877288]
- pIC50 [1, 5]: < 5.30
- pIC50 [2, 6]: < 5.30

Compound: CCC1(CC)C2=C(CC(C)(C)CC2=O)Nc2n[nH]c(C3CC3)c21 [Compound 877294]
- pIC50 [1, 5]: < 5.30
- pIC50 [2, 6]: < 5.30

Compound: Cc1[nH]nc2c1C1(CC3(CCC3)C1)C1=C(CC(C)(C)CC1=O)N2 [Compound 877295]
- pIC50 [1, 7]: < 5.30
- pIC50 [2, 9]: < 5.30

Compound: CCC1(c2cccc(N3CCCCC3)c2)C2=C(CC(C)(C)CC2=O)Nc2n[nH]c(C)c21 (stereo not shown) [Compound 877311]
- pIC50 [1, 3]: ≥ 7.00
- pIC50 [2, 4]: ≥ 7.00

Compound: CC1(C)CC(=O)C2=C(C1)Nc1n[nH]cc1[C@]21CCOC1 [Compound 877313]
- pIC50 [1, 11]: 6.00 to 7.00
- pIC50 [2, 12]: 6.00 to 7.00

Compound: CC1(C)CC(=O)C2=C(C1)Nc1n[nH]cc1[C@@]21CCOC1 [Compound 877314]
- pIC50 [1, 5]: 5.30 to 6.00
- pIC50 [2, 6]: 6.00 to 7.00

Compound: CC1(C)CC(=O)C2=C(C1)Nc1n[nH]cc1C21CCC(c2ccccc2)CC1 (stereo not shown) [Compound 877320]
- pIC50 [1, 11]: ≥ 7.00
- pIC50 [2, 12]: ≥ 7.00

Results, then the compound that gave them:

- pIC50 [1, 5]: < 5.30
- pIC50 [2, 6]: < 5.30
Compound: CC1(C)CC(=O)C2=C(C1)Nc1n[nH]cc1C21CCN(c2ccncc2)CC1 [Compound 880765]

- pIC50 [1, 11]: ≥ 7.00
- pIC50 [2, 12]: ≥ 7.00
Compound: CC1(C)CC(=O)C2=C(C1)Nc1n[nH]cc1C21CCN(S(C)(=O)=O)CC1 [Compound 880776]

- pIC50 [1, 11]: 5.30 to 6.00
- pIC50 [2, 12]: 6.00 to 7.00
Compound: CC1(C)CC(=O)C2=C(Nc3n[nH]cc3C23CCOCC3)[C@H]1F [Compound 883833]

- pIC50 [1, 11]: 5.30 to 6.00
- pIC50 [2, 12]: 6.00 to 7.00
Compound: CC1(C)CC(=O)C2=C(Nc3n[nH]cc3C23CCOCC3)[C@@H]1F [Compound 883834]

- pIC50 [1, 11]: 6.00 to 7.00
- pIC50 [2, 12]: 6.00 to 7.00
Compound: CC1(C)CC2=C(C(=O)[C@@H]1F)C1(CCOCC1)c1c[nH]nc1N2 [Compound 883835]

- pIC50 [1, 11]: 5.30 to 6.00
- pIC50 [2, 12]: 6.00 to 7.00
Compound: CC1(C)CC2=C(C(=O)[C@H]1F)C1(CCOCC1)c1c[nH]nc1N2 [Compound 883836]

- pIC50 [1, 11]: 6.00 to 7.00
- pIC50 [2, 12]: 6.00 to 7.00
Compound: C[C@H]1CC[C@]2(C1)C1=C(CC(C)(C)CC1=O)Nc1n[nH]cc12 [Compound 883840]

- pIC50 [1, 11]: 6.00 to 7.00
- pIC50 [2, 12]: 6.00 to 7.00
Compound: C[C@@H]1CC[C@@]2(C1)C1=C(CC(C)(C)CC1=O)Nc1n[nH]cc12 [Compound 883841]

- pIC50 [1, 11]: 5.30 to 6.00
- pIC50 [2, 12]: 6.00 to 7.00
Compound: CC1(C)CC(=O)C2=C(C1)Nc1n[nH]cc1[C@@]21CCCC(C)(C)C1 [Compound 883846]

- pIC50 [1, 5]: 6.00 to 7.00
- pIC50 [2, 6]: ≥ 7.00
Compound: CCC1(c2cccc(-c3ccnc(OC)c3)c2)C2=C(CC(C)(C)CC2=O)Nc2n[nH]cc21 (stereo not shown) [Compound 883850]

- pIC50 [1, 5]: ≥ 7.00
- pIC50 [2, 6]: ≥ 7.00
Compound: CCC1(c2cccc(-c3c(C)nn(C)c3C)c2)C2=C(CC(C)(C)CC2=O)Nc2n[nH]cc21 (stereo not shown) [Compound 883851]

- pIC50 [1, 11]: 6.00 to 7.00
- pIC50 [2, 12]: ≥ 7.00
Compound: CC1(C)CC(=O)C2=C(C1)Nc1n[nH]cc1C21CC(C)(C)C1 [Compound 883864]

- pIC50 [1, 11]: 6.00 to 7.00
- pIC50 [2, 12]: ≥ 7.00
Compound: Cc1[nH]nc2c1C1(CCCCC1)C1=C(CC(C)(C)CC1=O)N2 [Compound 883865]

- pIC50 [1, 7]: < 5.30
- pIC50 [2, 9]: < 5.30
Compound: CCC1(c2ccccc2)C2=C(CCN(C)C2=O)Nc2n[nH]cc21 (stereo not shown) [Compound 883867]

- pIC50 [1, 5]: ≥ 7.00
- pIC50 [1, 13]: 6.00 to 7.00
- pIC50 [2, 6]: ≥ 7.00
- pIC50 [2, 14]: ≥ 7.00
Compound: CCC1(c2cccc(C)c2)C2=C(CC(C)(C)CC2=O)Nc2n[nH]c(C(F)(F)F)c21 (stereo not shown) [Compound 883873]
